Measured values from patent publication US20210116454A1, “METHODS FOR TREATING A HEMATOLOGICAL CANCER AND THE USE OF COMPANION BIOMARKERS FOR 2-(2,6-DIOXOPIPERIDIN-3-YL)-4-((2-FLUORO-4-((3-MORPHOLINOAZETIDIN-1-YL)METHYL)BENZYL)AMINO)ISOINDOLINE-1,3-DIONE” (CELGENE CORPORATION, priority 2019, published 2021).
Where two headings read alike, the source gives them in different places. Blank lines part the entries; values can stand above or below the molecule they belong to.

What was measured:
SU-DHL-4 [1] = assay: CellTiter-Glo (CTG) antiproliferative assay, 5-day; type: cell-based; details: for antiproliferative activity (in words): SU-DHL-4, CellTiter-Glo
Experimental: To evaluate the activity of both Compound 1 and Compound 2 in DLBCL cells, a CellTiter-Glo (CTG) assay was performed to measure the antiproliferative activity.

cereblon (CRBN) = cereblon (CRBN) (Homo sapiens, UniProt Q96SW2); assay: Cereblon binding TR-FRET ligand competition assay; details: 10 to 20 minutes, n=5
Experimental: To investigate whether Compound 1 and its R-enantiomer Compound 2 could bind to cereblon, a short duration (10 to 20 minutes) ligand competition assay was used.

Ikaros = Ikaros (Homo sapiens, UniProt Q13422+Q96SW2); assay: ePL-tagged substrate degradation kinetics in DF15 cells (enantiomer comparison); type: cell-based; design: expressed in transfected cells; host or cells: DF15 cells; Ikaros Y-constant: scale not given here; details: for DC50: read-out: Ikaros EC50
Experimental: (§1) In a second assay, DF15 cell lines expressing ePL-tagged target protein substrates were used as a model system to monitor protein degradation at 0.75, 1, 1.5, 3, 4, and 24 hours over a concentration range from 1 pM to 10 μM. The proteins evaluated were Ikaros (FIG. 17), Aiolos, and ZFP91. Compound 1 and Compound 2 were both able to degrade the substrate proteins at all time points (Table 9). In a further assay, additional time points were included to monitor the effect of treatment with Compound 1 and Compound 2.
(§2) The depth of substrate protein degradation described by the Y-constant was also measured in this assay against a negative control luciferase inhibitor (CC1071297, Y-constant=0).

Aiolos = biological target: T1, Aiolos (Homo sapiens, UniProt Q96SW2+Q9UKT9); assay: as above; type: cell-based; design: Aiolos Y-constant: scale not given here; details: for DC50: read-out: Aiolos EC50
T1 construct: expressed in transfected cells; host or cells: DF15 cells
Experimental: as §1, §2

SU-DHL-2 cells = assay: Western blot of substrate degradation by each enantiomer, short time-course; type: cell-based; details: SU-DHL-2, higher concentrations and longer exposure
Experimental: Pure samples of each enantiomer were tested for cellular degradation of substrate proteins measured over a short time-course (FIG. 16). SU-DHL-2 cells were treated for 1, 2, and 6 hours with vehicle control (0.1% DMSO), Compound 1 (1, 10, 100 nM), or Compound 2 (1, 10, 100 nM). Western blot analysis was used to evaluate the extent of degradation of the protein substrates Aiolos, Ikaros, and ZFP91. Compound 1 inhibited Aiolos, Ikaros, and ZFP91 in as early as 1 hour of treatment with as little as 1 nM.

ZFP91 = biological target: T2, ZFP91 (Homo sapiens, UniProt Q96JP5+Q96SW2); assay: ePL-tagged substrate degradation kinetics in DF15 cells (enantiomer comparison); type: cell-based; design: ZFP91 Y-constant: scale not given here; details: for DC50: read-out: ZFP91 EC50
T2 construct: expressed in transfected cells; host or cells: DF15 cells
Experimental: as §1, §2

SU-DHL-16 = assay: 5-day viable cell number and apoptosis (7-AAD exclusion/Annexin V flow cytometry); type: cell-based; details: Homo sapiens; SU-DHL-16 cells (Table 3); read-out: IC50
From the text: (§3) The DLBCL panel includes seven cell lines classified as activated B-cell (ABC) subtype, thirteen cell lines classified as the germinal center B-cell (GCB) subtype, and three cell lines classified as primary mediastinal B-cell lymphoma (PMBL). […] The translocation of MYC, BCL6, or BCL2 to an IG locus usually leads to high levels of mRNA and protein due to the active transcription driven by a constitutively active IG promoter. […] Expressions of CRBN protein and known substrates, Ikaros, Aiolos, and ZFP91 were also evaluated (FIG. 1, panels B and C).
(§4) The panel of cell lines were treated with increasing doses of compounds for five days, at which time the number of viable cells was measured and the amount of apoptosis was determined by 7-AAD exclusion and Annexin V staining using flow cytometry.

OCI-Ly10 = assay: as above; type: cell-based; details: Homo sapiens; OCI-Ly10 cells (Table 3); read-out: IC50
From the text: as §3, §4

SU-DHL-4 [2] = assay: as above; type: cell-based; details: Homo sapiens; SU-DHL-4 cells (Table 3); read-out: IC50
From the text: as §3, §4

WSU-DLCL2 = assay: as above; type: cell-based; details: Homo sapiens, WSUDLCL2; WSU-DLCL2 cells (Table 3); read-out: IC50
From the text: as §3, §4

Pfeiffer = assay: as above; type: cell-based; details: Homo sapiens; Pfeiffer cells (Table 3)
From the text: as §3, §4

RIVA = assay: as above; type: cell-based; details: RIVA cells (Table 3); read-out: IC50
From the text: as §3, §4

SU-DHL-8 = assay: as above; type: cell-based; details: Homo sapiens; SU-DHL-8 cells (Table 3); read-out: IC50
From the text: as §3, §4

RC-K8 = assay: as above; type: cell-based; details: Homo sapiens, RCK8; RC-K8 cells (Table 3); read-out: IC50
From the text: as §3, §4

SU-DHL-10 = assay: as above; type: cell-based; details: Homo sapiens, SU-DHL10; SU-DHL-10 cells (Table 3); read-out: IC50
From the text: as §3, §4

DB = assay: as above; type: cell-based; details: Homo sapiens; DB cells (Table 3)
From the text: as §3, §4

Farage = assay: as above; type: cell-based; details: Farage cells (Table 3); read-out: IC50
From the text: as §3, §4

KARPAS-422 = assay: as above; type: cell-based; details: Homo sapiens; KARPAS-422 cells (Table 3); read-out: IC50
From the text: as §3, §4

U2932 = assay: as above; type: cell-based; details: Homo sapiens; U2932 cells (Table 3); read-out: IC50
From the text: as §3, §4

HT = assay: as above; type: cell-based; details: Homo sapiens; HT cells (Table 3); read-out: IC50
From the text: as §3, §4

KARPAS-1106P = assay: as above; type: cell-based; details: Homo sapiens; KARPAS-1106P cells (Table 3); read-out: IC50
From the text: as §3, §4

SU-DHL-2 = assay: as above; type: cell-based; details: Homo sapiens; SU-DHL-2 cells (Table 3); read-out: IC50
From the text: as §3, §4

OCI-LY-7 = assay: as above; type: cell-based; details: Homo sapiens, OCI-Ly7; OCI-LY-7 cells (Table 3); read-out: IC50
From the text: as §3, §4

SMILES: O=C1CCC(N2C(=O)c3cccc(NCc4ccc(CN5CC(N6CCOCC6)C5)cc4F)c3C2=O)C(=O)N1 (racemic) [Compound 3, 2-(2,6-Dioxopiperidin-3-yl)-4-((2-fluoro-4-((3-morpholinoazetidin-1-yl)methyl)benzyl)amino)isoindoline-1,3-dione]
antiproliferative activity (in words) (SU-DHL-4 [1]): Potent antiproliferative activity

IC50 (cereblon (CRBN)): 10.2 ± 1 µM
Ikaros Y-constant (Ikaros; 0.75 hours): 47.0
DC50 (Ikaros; 0.75 hours): 0.0397 µM
Ikaros Y-constant (Ikaros; 1 hour): 34.4
DC50 (Ikaros; 1 hour): 0.027 µM
Ikaros Y-constant (Ikaros; 1.5 hours): 15.3
DC50 (Ikaros; 1.5 hours): 0.0225 µM
Ikaros Y-constant (Ikaros; 3 hours): 7.3
DC50 (Ikaros; 3 hours): 0.00888 µM
Ikaros Y-constant (Ikaros; 4 hours): 5.5
DC50 (Ikaros; 4 hours): 0.00731 µM
Ikaros Y-constant (Ikaros; 24 hours): 2.4
DC50 (Ikaros; 24 hours): 0.0007 µM
Aiolos Y-constant (Aiolos; 0.75 hours): 54
DC50 (Aiolos; 0.75 hours): 0.038 µM
Aiolos Y-constant (Aiolos; 1 hour): 37
DC50 (Aiolos; 1 hour): 0.024 µM
Aiolos Y-constant (Aiolos; 1.5 hours): 15
DC50 (Aiolos; 1.5 hours): 0.017 µM
Aiolos Y-constant (Aiolos; 3 hours): 3.5
DC50 (Aiolos; 3 hours): 0.01 µM
Aiolos Y-constant (Aiolos; 4 hours): 3.5
DC50 (Aiolos; 4 hours): 0.0073 µM
Aiolos Y-constant (Aiolos; 24 hours): 3.8
DC50 (Aiolos; 24 hours): 0.0053 µM
IC50 (SU-DHL-4 [1]; Homo sapiens, 120 h, SU-DHL-4, 5-day assay, n = 6): 0.032 µM
ZFP91 Y-constant (ZFP91; 0.75 hours): 41
DC50 (ZFP91; 0.75 hours): 0.029 µM
ZFP91 Y-constant (ZFP91; 1 hour): 22
DC50 (ZFP91; 1 hour): 0.025 µM
ZFP91 Y-constant (ZFP91; 1.5 hours): 10
DC50 (ZFP91; 1.5 hours): 0.016 µM
ZFP91 Y-constant (ZFP91; 3 hours): 4.6
DC50 (ZFP91; 3 hours): 0.0045 µM
ZFP91 Y-constant (ZFP91; 4 hours): 4.1
DC50 (ZFP91; 4 hours): 0.0026 µM
ZFP91 Y-constant (ZFP91; 24 hours): 2.5
DC50 (ZFP91; 24 hours): 0.00035 µM
SMILES: O=C1CC[C@@H](N2C(=O)c3cccc(NCc4ccc(CN5CC(N6CCOCC6)C5)cc4F)c3C2=O)C(=O)N1 [Compound 2, (R)-2-(2,6-dioxopiperidin-3-yl)-4-((2-fluoro-4-((3-morpholinoazetidin-1-yl)methyl)benzyl)amino)isoindoline-1,3-dione]
expression of Aiolos, Ikaros, and ZFP91 (SU-DHL-2 cells): decreased expression
antiproliferative activity (in words) (SU-DHL-4 [1]): Potent antiproliferative activity

IC50 (SU-DHL-16): 21 µM
IC50 (OCI-Ly10): 200 µM
IC50 (SU-DHL-4 [2]): 145 µM
IC50 (SU-DHL-8): 548 µM
IC50 (SU-DHL-10): 454 µM
IC50 (KARPAS-422): 75 µM
IC50 (KARPAS-1106P): 200 µM
IC50 (SU-DHL-2): 355 µM
IC50 (OCI-LY-7): 1010 µM
SMILES: CC1(C)CCC(CN2CCN(c3ccc(C(=O)NS(=O)(=O)c4ccc(NCC5CCOCC5)c([N+](=O)[O-])c4)c(Oc4cnc5[nH]ccc5c4)c3)CC2)=C(c2ccc(Cl)cc2)C1 [Venetoclax, 4-(4-{[2-(4-chlorophenyl)-4,4-dimethylcyclohex-1-en-1-yl]methyl}piperazin-1-yl)-N-({3-nitro-4-[(tetrahydro-2H-pyran-4ylmethyl)amino]phenyl}sulfonyl)-2-(1H-pyrrolo[2,3-b]pyridin-5-yloxy)benzamide, reference compound]
IC50 (WSU-DLCL2): 215 µM
IC50 (Pfeiffer): 432 µM
IC50 (RIVA): 5 µM
IC50 (RC-K8): 609 µM
IC50 (DB): 82 µM
IC50 (Farage): 560 µM
IC50 (U2932): 230 µM
IC50 (HT): 644 µM
